Molecular target: T1, α7 nAChR (Macaca mulatta, UniProt Q866A2)
T1 construct: from tissue; host or cells: brain of a living rhesus monkey
Assay: Comparative PET study in a rhesus monkey
Format: in vivo, rhesus monkey (Macaca mulatta)
Protocol: One male rhesus monkey (Macaca mulatta, 6 years old, body weight = 10 kg) underwent two PET imaging sessions with [^18F]10a and [^18F]10b, respectively. The scans were conducted 19 days apart. The monkey was initially sedated by intramuscular ketamine at 10 mg∙kg^−1 at ~2 h before the PET scan and anesthetized by 1.5%–3% isoflurane throughout the imaging session. PET scan was performed using a FOCUS-220 PET scanner (Siemens Preclinical Solutions, Knoxville, TN, USA). After a transmission scan, 167 MBq of [^18F]10a (specific activity of 362 GBq∙μmol^−1) or 185 MBq of [^18F]10b (specific activity of 159 GBq·μmol^−1) were administered intravenously. Emission data were acquired in list mode for 240 min. Raw list-mode PET data was histogrammed (frames of 6 × 30 s; 3 × 1 min; 2 × 2 min; 46 × 5 min to scan termination) and reconstructed with 2D filtered back projection, using a 0.15 cm^−1 Shepp filter and including corrections for scanner normalization, detector dead time, randoms, and radiation scatter and attenuation. The PET images were then registered to MR images, acquired with a Siemens 3 T Trio scanner, with a 6-parameter rigid body registration. The MR native space was then normalized using nonlinear affine registration to a high-resolution rhesus monkey atlas using BioImage Suite 3.01 (http://www.bioimagesuite.org/index.html). Time-activity curves were extracted by mapping atlas-defined regions to PET native space using the optimal transformation matrices calculated in the registration and normalization steps. Regions extracted included amygdala, caudate, cerebellum, cingulate, cortical regions (frontal, occipital, and temporal cortex), hippocampus, putamen, thalamus, and pons.

T1 sequence (Q866A2 23-502): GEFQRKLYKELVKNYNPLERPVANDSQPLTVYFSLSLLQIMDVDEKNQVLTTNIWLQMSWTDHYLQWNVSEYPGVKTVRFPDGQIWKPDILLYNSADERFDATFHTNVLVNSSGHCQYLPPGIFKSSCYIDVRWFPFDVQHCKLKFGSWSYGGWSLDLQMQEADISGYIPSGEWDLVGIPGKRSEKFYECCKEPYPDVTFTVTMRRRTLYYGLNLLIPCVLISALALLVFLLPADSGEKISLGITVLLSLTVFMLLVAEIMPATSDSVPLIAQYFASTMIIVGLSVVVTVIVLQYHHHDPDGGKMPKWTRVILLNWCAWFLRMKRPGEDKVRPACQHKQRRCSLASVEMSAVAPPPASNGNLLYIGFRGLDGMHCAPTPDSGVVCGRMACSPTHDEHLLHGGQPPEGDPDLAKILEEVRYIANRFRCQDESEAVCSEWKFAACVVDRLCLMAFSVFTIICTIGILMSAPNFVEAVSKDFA

O=S1(=O)c2ccc([18F])cc2-c2ccc(N3CCN4CCC3CC4)cc21 [[^18F]10a]
total volume of distribution VT (cerebellum): 28.5 mL∙cm^−3 | total volume of distribution VT (thalamus): 48.1 mL∙cm^−3

Reference: article PMC6332508, “A Promising PET Tracer for Imaging of α7 Nicotinic Acetylcholine Receptors in the Brain: Design, Synthesis, and in Vivo Evaluation of a Dibenzothiophene-Based Radioligand” (Molecules, 2015)
